Experimental data published in BindingDB's records for doi:10.1021/bi000930v (Max Planck Institute, 2001).

Assays:
[1] = target: T1, E3 ubiquitin-protein ligase Mdm2 (Homo sapiens, UniProt Q00987); assay: p53-MDM2 Binding ELISA; settings: pH 7.4; 23 °C
Method: Interference of the p53-MDM2 binding by test compounds was measured in a 96-well polypropylene round-bottom microtiter plate (Costar, Serocluster). Human MDM2 (amino acids 1-118) was preincubated with 10% DMSO or compounds in assay buffer. After 15-min incubation of the sample, a biotinylated p53-derived peptide was added. As a negative control, buffer only was added into separate wells (blanks). After another 30 min, the incubation mixture was added to 96-well plates coated with streptavidin. After 1 h, the wells were extensively washed. Then, the MDM2 specific antibody was added. After 1 h, the wells were thoroughly washed and the secondary antibody (anti-rabbit-IgG-POD) was added. After another hour, the wells were washed, and the peroxidase subtrate ABTS was added. After 30 min, OD 405/490 nm was determined with a Dynatech MR 7000 ELISA reader.

[2] = target: T1, E3 ubiquitin-protein ligase Mdm2; assay: NMR Titration Experiment; settings: pH 7.4; 23 °C
Method: NMR measurements consisted of monitoring changes in chemical shifts and line widths of the backbone amide resonances of uniformly 15N-enriched MDM2 samples in a series of HSQC spectra as a function of a ligand concentration. The complexes of human MDM2 and the chalcones were prepared by mixing the protein and the ligand in the NMR tube. Typically, NMR spectra were recorded 15 min after mixing at room temperature. An initial screening of all compounds used in this study was performed with a 10-fold molar excess of chalcone to human MDM2. […] All KD values obtained by NMR spectroscopy are based on at least six data points.

T1 sequence (Q00987 whole entry, the tested form may be a part): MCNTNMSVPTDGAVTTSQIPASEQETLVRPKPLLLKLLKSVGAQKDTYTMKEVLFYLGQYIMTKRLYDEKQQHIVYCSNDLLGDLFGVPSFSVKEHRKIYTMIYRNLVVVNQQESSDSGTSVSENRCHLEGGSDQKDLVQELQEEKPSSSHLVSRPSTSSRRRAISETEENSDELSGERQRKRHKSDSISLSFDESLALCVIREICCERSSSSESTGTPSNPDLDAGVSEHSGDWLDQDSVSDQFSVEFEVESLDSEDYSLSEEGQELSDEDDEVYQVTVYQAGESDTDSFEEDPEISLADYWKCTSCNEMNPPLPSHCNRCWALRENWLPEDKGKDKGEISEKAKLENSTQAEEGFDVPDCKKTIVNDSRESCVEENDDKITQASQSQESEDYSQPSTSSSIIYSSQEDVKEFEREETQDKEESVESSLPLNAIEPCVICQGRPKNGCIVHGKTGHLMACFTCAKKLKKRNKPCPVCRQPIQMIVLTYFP

| Compound | IC50 [1] | Kd [2] |
| --- | --- | --- |
| O=C(O)COc1ccc(/C=C/C(=O)c2ccc(Cl)cc2)cc1 [Chalcone derivative, A] | 206 µM | 220 µM |
| O=C(O)COc1ccc(C(=O)/C=C/c2ccc(Cl)c(Cl)c2)cc1 [Chalcone derivative, B-1] | 117 µM | 150 µM |
| O=C(O)COc1ccc(/C=C/C(=O)c2ccc(Cl)c(Cl)c2)cc1 [Chalcone derivative, B] | 49 µM | 90 µM |
| CC(C)(Oc1ccc(/C=C/C(=O)c2ccc(Cl)cc2)cc1)C(=O)O [Chalcone derivative, C] | 250 µM | 244 µM |
| Oc1ccc2ccc3c(c2c1)CN(Cc1ccccc1)CO3 [Chalcone derivative, D] | > 250 µM | – |
| CCOC(=O)C(C)(C)Oc1ccc(CCNC(=O)/C=C/C(=O)c2ccc(Cl)cc2)cc1 [Chalcone derivative, E] | > 250 µM | – |

Continued, values first:

| IC50 [1] | Kd [2] | Compound |
| --- | --- | --- |
| > 250 µM | – | O=C(CC(=Nc1ccccc1)c1ccccc1)Nc1ccccc1 [Chalcone derivative, F] |
| > 250 µM | – | CCOc1ccc(NC(=O)CC(=Nc2ccccc2)c2ccccc2)cc1 [Chalcone derivative, G] |
| > 250 µM | – | O=C(C(=S)Nc1ccccc1)C(C=Nc1ccccc1)c1ccccc1 (centres undefined) [Chalcone derivative, H] |
| – | 270 µM | O=C(O)COc1c(Br)cc(/C=C/C(=O)c2ccc3ccccc3c2)cc1Br [Chalcone derivative, N] |
